Laboratory results taken from patent US20140228287A1, “1-[(3-CYANO-PYRIDIN-2-YL)METHYL]-3-METHYL-7-(2-BUTYN-1-YL)-8-[3-(R)-AMINO-PIPERIDIN-1-YL]-AXANTHINE FOR THE TREATMENT OF A METABOLIC DISORDER OF A PREDOMINANTLY CARNIVOROUS NON-HUMAN ANIMAL” (BOEHRINGER INGELHEIM VETMEDICA GMBH, priority 2010, published 2014).
Structures can show the parent of a compound that is named as a salt. Where two headings read alike, the source gives them in different places.

Key:
[1] = target: DPP 8 (Homo sapiens, UniProt Q6V1X1); assay: In vitro selectivity, human proteases: DPP 8; format: biochemical
Sequence of DPP 8 (Q6V1X1 whole entry): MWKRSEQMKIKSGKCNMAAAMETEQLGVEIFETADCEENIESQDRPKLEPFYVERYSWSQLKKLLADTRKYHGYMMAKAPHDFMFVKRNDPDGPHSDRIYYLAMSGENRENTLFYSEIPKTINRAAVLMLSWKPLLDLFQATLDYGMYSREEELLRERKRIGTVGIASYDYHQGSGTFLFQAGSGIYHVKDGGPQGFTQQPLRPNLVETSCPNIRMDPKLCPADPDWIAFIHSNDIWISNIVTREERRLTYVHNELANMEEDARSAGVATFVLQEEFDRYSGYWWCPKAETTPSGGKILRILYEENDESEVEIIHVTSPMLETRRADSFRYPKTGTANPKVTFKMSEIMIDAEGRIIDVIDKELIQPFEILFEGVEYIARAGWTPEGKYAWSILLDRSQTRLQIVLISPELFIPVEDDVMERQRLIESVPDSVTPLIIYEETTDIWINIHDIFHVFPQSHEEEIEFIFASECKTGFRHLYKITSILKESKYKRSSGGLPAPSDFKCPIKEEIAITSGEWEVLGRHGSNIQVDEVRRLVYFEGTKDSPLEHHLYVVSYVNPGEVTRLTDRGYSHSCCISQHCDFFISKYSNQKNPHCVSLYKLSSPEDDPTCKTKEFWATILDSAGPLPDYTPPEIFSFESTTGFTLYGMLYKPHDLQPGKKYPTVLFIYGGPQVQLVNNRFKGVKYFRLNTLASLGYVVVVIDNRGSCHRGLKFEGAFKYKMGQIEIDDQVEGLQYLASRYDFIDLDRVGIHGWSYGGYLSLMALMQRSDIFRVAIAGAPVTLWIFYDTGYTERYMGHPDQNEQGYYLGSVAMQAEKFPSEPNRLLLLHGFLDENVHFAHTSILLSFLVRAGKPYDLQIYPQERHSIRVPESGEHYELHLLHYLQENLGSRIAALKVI
Text: In order to determine the in vitro selectivity of 1-[(3-cyano-pyridin-2-yl)methyl]-3-methyl-7-(2-butyn-1-yl)-8-[3-(R)-amino-piperidin-1-yl]-xanthine, the ability of this compound to inhibit a number of human proteases was investigated as described in Thomas et al. (2008), J. Pharmacol. Exp. Ther., vol. 325, p. 175-182, chapter In vitro DPP-4 Inhibition Assay, p. 176.

[2] = target: T1, DPP IV (Felis catus, UniProt Q9N2I7); assay: Exploratory single dose PK/PD (0.01/0.1/1.0 mg/kg) in cats: DPP IV activity; format: in vivo; conditions: read-out: DPP IV activity in cat plasma; for response vs control in vivo at 0.01 mg/kg: 0.01 mg/kg single oral; for response vs control in vivo at 0.1 mg/kg: 0.1 mg/kg single oral; for response vs control in vivo at 1 mg/kg: 1 mg/kg single oral
T1 construct: Blood samples for the determination of this compound and DPP IV activity were collected; from tissue; host or cells: plasma of domestic short hair / purpose-bred cats dosed orally
T1 sequence (Q9N2I7 38-765 limits assumed): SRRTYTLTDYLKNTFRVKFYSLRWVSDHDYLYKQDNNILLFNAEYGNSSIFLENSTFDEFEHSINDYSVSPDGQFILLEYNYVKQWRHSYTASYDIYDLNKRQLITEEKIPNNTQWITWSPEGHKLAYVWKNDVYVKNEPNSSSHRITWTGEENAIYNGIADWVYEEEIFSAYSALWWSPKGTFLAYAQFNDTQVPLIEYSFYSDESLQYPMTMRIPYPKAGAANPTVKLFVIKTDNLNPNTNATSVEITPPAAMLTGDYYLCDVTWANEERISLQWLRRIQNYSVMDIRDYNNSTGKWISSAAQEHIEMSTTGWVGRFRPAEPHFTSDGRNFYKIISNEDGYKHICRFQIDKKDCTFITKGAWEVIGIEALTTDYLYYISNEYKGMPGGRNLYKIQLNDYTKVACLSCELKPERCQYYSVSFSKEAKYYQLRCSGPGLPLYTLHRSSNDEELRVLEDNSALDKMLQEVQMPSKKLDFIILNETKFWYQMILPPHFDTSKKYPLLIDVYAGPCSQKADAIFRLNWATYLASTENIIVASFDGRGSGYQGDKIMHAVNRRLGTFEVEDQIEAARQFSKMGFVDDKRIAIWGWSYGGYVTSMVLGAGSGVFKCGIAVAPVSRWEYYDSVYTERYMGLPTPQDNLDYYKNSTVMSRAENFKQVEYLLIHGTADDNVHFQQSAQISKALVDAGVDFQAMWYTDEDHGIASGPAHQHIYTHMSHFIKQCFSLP
Experimental: (§1) The investigation of the PK/PD values was conducted in the same way as in Example 7, with the variations described below.
The aim of this study was to investigate the PK/PD of 1-[(3-cyano-pyridin-2-yl)methyl]-3-methyl-7-(2-butyn-1-yl)-8-[3-(R)-amino-piperidin-1-yl]-xanthine monohydrochloride in the cat after a single oral administration of 0, 0.01, 0.1 and 1.0 mg/kg body weight of this compound (dosages were based on the free base).
Eleven clinically healthy male adult domestic short hair cats with a body weight range of 3.5-5.0 kg were used in this study. All animals were treated orally once via a stomach tube. Blood samples were drawn at 0 h (i.e. prior to treatment), 30 min as well as 1, 2, 4, 8, 12, 24, 36, 48, 72 and 96 h after treatment and the activity of DPP IV was determined like in Example 6.

[3] = target: T1, DPP IV; assay: Exploratory single dose PK/PD (1.0/5.0/10.0 mg/kg) in cats: DPP IV activity; format: in vivo, cat; conditions: for response vs control in vivo at 1 mg/kg: 1 mg/kg single oral; for response vs control in vivo at 1 mg/kg / response vs control in vivo at 5 mg/kg / response vs control in vivo at 10 mg/kg: read-out: DPP IV activity in cat plasma; for response vs control in vivo at 5 mg/kg: 5 mg/kg single oral; for response vs control in vivo at 10 mg/kg: 10 mg/kg single oral
Experimental: as §1
The aim of this study was to investigate the PK/PD behaviour of 1-[(3-cyano-pyridin-2-yl)methyl]-3-methyl-7-(2-butyn-1-yl)-8-[3-(R)-amino-piperidin-1-yl]-xanthine in the cat following a single oral administration of 0, 1, 5 and 10 mg/kg body weight (dosages were based on the free base: 1 mg 1-[(3-cyano-pyridin-2-yl)methyl]-3-methyl-7-(2-butyn-1-yl)-8-[3-(R)-amino-piperidin-1-yl]-xanthine monohydrochloride corresponds to 0.923 mg 1-[(3-cyano-pyridin-2-yl)methyl]-3-methyl-7-(2-butyn-1-yl)-8-[3-(R)-amino-piperidin-1-yl]-xanthine free base).
Twelve clinically healthy male adult domestic short hair cats with a body weight range of 3.5-4.7 kg were used in this study. All animals were treated orally once via a stomach tube. Blood samples for pharmacokinetic and pharmacodynamic (DPP IV activity) investigations were drawn at 0 h (i.e. prior to treatment), 30 min as well as 1, 2, 4, 8, 8.5, 9, 12, 24, 36, 48, 72, 84 and 96 h after treatment. Blood samples for pharmacodynamic (glucagon-like peptide 1 concentrations) investigations were drawn at −16 (i.e. prior to feeding), −15.5, −15 h as well as at 8 h (i.e. prior to feeding), 8.5 and 9 h after treatment.

[4] = target: T1, DPP IV; assay: OGTT study in normal cats after 9 mg per cat: DPP IV activity; format: in vivo; conditions: 9 mg per cat oral
Experimental: An OGTT like in Example 11 was performed in […] beginning 1 h after oral administration of 9 mg 1-[(3-cyano-pyridin-2-yl)methyl]-3-methyl-7-(2-butyn-1-yl)-8-[3-(R)-amino-piperidin-1-yl]-xanthine monohydrochloride or placebo (2 groups with 6 animals each; 3 male and 3 females per group).

Q: With CC#CCn1c(N2CCC[C@@H](N)C2)nc2c1c(=O)n(Cc1ncccc1C#N)c(=O)n2C [1-[(3-cyano-pyridin-2-yl)methyl]-3-methyl-7-(2-butyn-1-yl)-8-[3-(R)-amino-piperidin-1-yl]-xanthine monohydrochloride] as the molecule, how does the IC50 [1] read?
A: 95 µM

Q: What about the response vs control in vivo at 0.01 mg/kg ([2]; 0.5 h) of the same molecule?
A: 73%

Q: And the response vs control in vivo at 0.01 mg/kg ([2]; 1 h)?
A: 66%

Q: And the response vs control in vivo at 0.01 mg/kg ([2]; 2 h)?
A: 71%

Q: And the response vs control in vivo at 0.01 mg/kg ([2]; 4 h)?
A: 77%

Q: What about the response vs control in vivo at 0.01 mg/kg ([2]; 8 h) of the same molecule?
A: 85%

Q: What about the response vs control in vivo at 0.01 mg/kg ([2]; 12 h) of the same molecule?
A: 88%

Q: What about the response vs control in vivo at 0.01 mg/kg ([2]; 24 h) of the same molecule?
A: 90%

Q: And the response vs control in vivo at 0.01 mg/kg ([2]; 36 h)?
A: 87%

Q: What about the response vs control in vivo at 0.01 mg/kg ([2]; 48 h) of the same molecule?
A: 88%

Q: What about the response vs control in vivo at 0.01 mg/kg ([2]; 72 h) of the same molecule?
A: 85%

Q: And the response vs control in vivo at 0.01 mg/kg ([2]; 96 h)?
A: 90%

Q: What about the response vs control in vivo at 0.1 mg/kg ([2]; 0.5 h) of the same molecule?
A: 23%

Q: What about the response vs control in vivo at 0.1 mg/kg ([2]; 1 h) of the same molecule?
A: 17%

Q: What about the response vs control in vivo at 0.1 mg/kg ([2]; 2 h) of the same molecule?
A: 16%

Q: What about the response vs control in vivo at 0.1 mg/kg ([2]; 4 h) of the same molecule?
A: 24%

Q: And the response vs control in vivo at 0.1 mg/kg ([2]; 8 h)?
A: 39%

Q: What about the response vs control in vivo at 0.1 mg/kg ([2]; 12 h) of the same molecule?
A: 50%

Q: And the response vs control in vivo at 0.1 mg/kg ([2]; 24 h)?
A: 67%

Q: And the response vs control in vivo at 0.1 mg/kg ([2]; 36 h)?
A: 83%

Q: And the response vs control in vivo at 0.1 mg/kg ([2]; 48 h)?
A: 82%

Q: And the response vs control in vivo at 0.1 mg/kg ([2]; 72 h)?
A: 91%

Q: What about the response vs control in vivo at 0.1 mg/kg ([2]; 96 h) of the same molecule?
A: 90%

Q: What about the response vs control in vivo at 1 mg/kg ([2]; 0.5 h) of the same molecule?
A: 10%

Q: What about the response vs control in vivo at 1 mg/kg ([2]; 1 h) of the same molecule?
A: 10%

Q: And the response vs control in vivo at 1 mg/kg ([2]; 2 h)?
A: 8%

Q: What about the response vs control in vivo at 1 mg/kg ([2]; 4 h) of the same molecule?
A: 10%

Q: What about the response vs control in vivo at 1 mg/kg ([2]; 8 h) of the same molecule?
A: 12%

Q: And the response vs control in vivo at 1 mg/kg ([2]; 12 h)?
A: 15%

Q: And the response vs control in vivo at 1 mg/kg ([2]; 24 h)?
A: 27%

Q: What about the response vs control in vivo at 1 mg/kg ([2]; 36 h) of the same molecule?
A: 63%

Q: What about the response vs control in vivo at 1 mg/kg ([2]; 48 h) of the same molecule?
A: 72%

Q: What about the response vs control in vivo at 1 mg/kg ([2]; 72 h) of the same molecule?
A: 80%

Q: And the response vs control in vivo at 1 mg/kg ([2]; 96 h)?
A: 86%

Q: What about the “time up to which DPP IV values remained ≦20%” value ([3]; 1.0 mg/kg single oral) of the same molecule?
A: 12 h

Q: What about the response vs control in vivo at 1 mg/kg ([3]; 0.5 h) of the same molecule?
A: 8%

Q: What about the response vs control in vivo at 1 mg/kg ([3]; 1 h) of the same molecule?
A: 7%

Q: What about the response vs control in vivo at 1 mg/kg ([3]; 2 h) of the same molecule?
A: 7%

Q: What about the response vs control in vivo at 1 mg/kg ([3]; 4 h) of the same molecule?
A: 7.3%

Q: What about the response vs control in vivo at 1 mg/kg ([3]; 8 h) of the same molecule?
A: 9.3%

Q: What about the response vs control in vivo at 1 mg/kg ([3]; 8.5 h) of the same molecule?
A: 9.7%

Q: What about the response vs control in vivo at 1 mg/kg ([3]; 9 h) of the same molecule?
A: 9.7%

Q: And the response vs control in vivo at 1 mg/kg ([3]; 12 h)?
A: 12.3%

Q: And the response vs control in vivo at 1 mg/kg ([3]; 24 h)?
A: 22.3%

Q: What about the response vs control in vivo at 1 mg/kg ([3]; 36 h) of the same molecule?
A: 43%

Q: What about the response vs control in vivo at 1 mg/kg ([3]; 48 h) of the same molecule?
A: 59%

Q: And the response vs control in vivo at 1 mg/kg ([3]; 72 h)?
A: 74.7%

Q: And the response vs control in vivo at 1 mg/kg ([3]; 84 h)?
A: 84.3%

Q: What about the response vs control in vivo at 1 mg/kg ([3]; 96 h) of the same molecule?
A: 81.7%

Q: What about the “time up to which DPP IV values remained ≦20%” value ([3]; 5.0 mg/kg single oral) of the same molecule?
A: 24 h

Q: And the response vs control in vivo at 5 mg/kg ([3]; 0.5 h)?
A: 7.7%

Q: And the response vs control in vivo at 5 mg/kg ([3]; 1 h)?
A: 7%

Q: And the response vs control in vivo at 5 mg/kg ([3]; 2 h)?
A: 7%

Q: What about the response vs control in vivo at 5 mg/kg ([3]; 4 h) of the same molecule?
A: 7.7%

Q: And the response vs control in vivo at 5 mg/kg ([3]; 8 h)?
A: 8.3%

Q: And the response vs control in vivo at 5 mg/kg ([3]; 8.5 h)?
A: 8.7%

Q: What about the response vs control in vivo at 5 mg/kg ([3]; 9 h) of the same molecule?
A: 9%

Q: What about the response vs control in vivo at 5 mg/kg ([3]; 12 h) of the same molecule?
A: 9.3%

Q: And the response vs control in vivo at 5 mg/kg ([3]; 24 h)?
A: 14.7%

Q: And the response vs control in vivo at 5 mg/kg ([3]; 36 h)?
A: 25.7%

Q: What about the response vs control in vivo at 5 mg/kg ([3]; 48 h) of the same molecule?
A: 42.7%

Q: And the response vs control in vivo at 5 mg/kg ([3]; 72 h)?
A: 72.3%

Q: And the response vs control in vivo at 5 mg/kg ([3]; 84 h)?
A: 90%

Q: And the response vs control in vivo at 5 mg/kg ([3]; 96 h)?
A: 87.7%

Q: And the “time up to which DPP IV values remained ≦20%” value ([3]; 10.0 mg/kg single oral)?
A: 48 h

Q: What about the response vs control in vivo at 10 mg/kg ([3]; 0.5 h) of the same molecule?
A: 8%

Q: And the response vs control in vivo at 10 mg/kg ([3]; 1 h)?
A: 7.3%

Q: And the response vs control in vivo at 10 mg/kg ([3]; 2 h)?
A: 7.3%

Q: And the response vs control in vivo at 10 mg/kg ([3]; 4 h)?
A: 9%

Q: What about the response vs control in vivo at 10 mg/kg ([3]; 8 h) of the same molecule?
A: 9%

Q: What about the response vs control in vivo at 10 mg/kg ([3]; 8.5 h) of the same molecule?
A: 9.7%

Q: And the response vs control in vivo at 10 mg/kg ([3]; 9 h)?
A: 9.3%

Q: And the response vs control in vivo at 10 mg/kg ([3]; 12 h)?
A: 9.7%

Q: And the response vs control in vivo at 10 mg/kg ([3]; 24 h)?
A: 12.3%

Q: And the response vs control in vivo at 10 mg/kg ([3]; 36 h)?
A: 16.3%

Q: What about the response vs control in vivo at 10 mg/kg ([3]; 48 h) of the same molecule?
A: 20%

Q: And the response vs control in vivo at 10 mg/kg ([3]; 72 h)?
A: 37%

Q: What about the response vs control in vivo at 10 mg/kg ([3]; 84 h) of the same molecule?
A: 58.3%

Q: And the response vs control in vivo at 10 mg/kg ([3]; 96 h)?
A: 67.3%

Q: What about the “minimum mean DPP IV values” ([3]; all three groups (1.0, 5.0, 10.0 mg/kg single oral)) of the same molecule?
A: 7%

Q: What about the “plasma concentration at which maximum DPP-IV inhibition was reached” value ([3]; cat, PK-PD correlation) of the same molecule?
A: 15 to 30 nmol/L

Q: And the “inhibition of DPP IV activity” value [4]?
A: more than 80%
